# Experimental data taken from ChEMBL document CHEMBL1201862, “PubChem BioAssay data set” (2004).
#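 Exposure lasted 48 hours, with cells grown in 96-well plates and compounds tested at five concentrations. At the GI50, growth is halved.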 Calls of active or inactive are those of the source. Rule as the data show it: active = GI50 up to about 1.1 µM and inactive = higher.
# Experiments:
# Experiment in all cases: growth of human tumour cells (NCI), 48 h
# A498 = test system: A498
# ACHN = test system: ACHN
# CCRF-CEM = test system: CCRF-CEM
# DMS-114 = test system: DMS-114
# DMS-273 = test system: DMS-273
# EKVX = test system: EKVX
# HCT-116 = test system: HCT-116
# HL-60 = test system: HL-60
# HOP-62 = test system: HOP-62
# HOP-92 = test system: HOP-92
# HT-29 = test system: HT-29
# IGROV-1 = test system: IGROV-1
# K562 = test system: K562
# KM-20L2 = test system: KM-20L2
# KM12 = test system: KM12
# M14 = test system: M14
# M19-MEL = test system: M19-MEL
# MOLT-4 = test system: MOLT-4
# NCI-H23 = test system: NCI-H23
# NCI-H460 = test system: NCI-H460
# NCI-H522 = test system: NCI-H522
# OVCAR-5 = test system: OVCAR-5
# OVCAR-8 = test system: OVCAR-8
# RXF 393 = test system: RXF 393
# SF-295 = test system: SF-295
# SK-MEL-28 = test system: SK-MEL-28
# SK-OV-3 = test system: SK-OV-3
# SNB-19 = test system: SNB-19
# SNB-78 = test system: SNB-78
# SR = test system: SR
# TK-10 = test system: TK-10
# U-251 = test system: U-251
# UACC-257 = test system: UACC-257
# UACC-62 = test system: UACC-62
# UO-31 = test system: UO-31
# 786-0 = test system: 786-0
# A549 = test system: A549
# BT-549 = test system: BT-549
# CAKI-1 = test system: CAKI-1
# COLO 205 = test system: COLO 205
# DU-145 = test system: DU-145
# HCC 2998 = test system: HCC 2998
# HCT-15 = test system: HCT-15
# Hs-578T = test system: Hs-578T
# LOX IMVI = test system: LOX IMVI
# MCF7 = test system: MCF7
# MDA-MB-231 = test system: MDA-MB-231
# MDA-MB-435 = test system: MDA-MB-435
# MDA-N = test system: MDA-N
# Malme-3M = test system: Malme-3M
# NCI-H226 = test system: NCI-H226
# NCI/ADR-RES = test system: NCI/ADR-RES
# OVCAR-3 = test system: OVCAR-3
# OVCAR-4 = test system: OVCAR-4
# PC-3 = test system: PC-3
# RPMI-8226 = test system: RPMI-8226
# SF-268 = test system: SF-268
# SF-539 = test system: SF-539
# SK-MEL-2 = test system: SK-MEL-2
# SK-MEL-5 = test system: SK-MEL-5
# SN12C = test system: SN12C
# SNB-75 = test system: SNB-75
# SW-620 = test system: SW-620
# T47D = test system: T47D
smiles,measurement,setting,value
CCCC(=O)OC1C(C2COC(C)(C)O2)OC2OC(C)(C)OC21 (centres undefined),GI50,A498,> 100 µM (inactive)
same,GI50,ACHN,> 100 µM (inactive)
same,GI50,CCRF-CEM,> 100 µM (inactive)
same,GI50,DMS-114,> 100 µM (inactive)
same,GI50,DMS-273,> 100 µM (inactive)
same,GI50,EKVX,> 100 µM (inactive)
same,GI50,HCT-116,> 100 µM (inactive)
same,GI50,HL-60,> 100 µM (inactive)
same,GI50,HOP-62,> 100 µM (inactive)
same,GI50,HOP-92,> 100 µM (inactive)
same,GI50,HT-29,> 100 µM (inactive)
same,GI50,IGROV-1,> 100 µM (inactive)
same,GI50,K562,> 100 µM (inactive)
same,GI50,KM-20L2,> 100 µM (inactive)
same,GI50,KM12,> 100 µM (inactive)
same,GI50,M14,> 100 µM (inactive)
same,GI50,M19-MEL,> 100 µM (inactive)
same,GI50,MOLT-4,> 100 µM (inactive)
same,GI50,NCI-H23,> 100 µM (inactive)
same,GI50,NCI-H460,> 100 µM (inactive)
same,GI50,NCI-H522,> 100 µM (inactive)
same,GI50,OVCAR-5,> 100 µM (inactive)
same,GI50,OVCAR-8,> 100 µM (inactive)
same,GI50,RXF 393,> 100 µM (inactive)
same,GI50,SF-295,> 100 µM (inactive)
same,GI50,SK-MEL-28,> 100 µM (inactive)
same,GI50,SK-OV-3,> 100 µM (inactive)
same,GI50,SNB-19,> 100 µM (inactive)
same,GI50,SNB-78,> 100 µM (inactive)
same,GI50,SR,> 100 µM (inactive)
same,GI50,TK-10,> 100 µM (inactive)
same,GI50,U-251,> 100 µM (inactive)
same,GI50,UACC-257,> 100 µM (inactive)
same,GI50,UACC-62,> 100 µM (inactive)
same,GI50,UO-31,> 100 µM (inactive)
O=C(O)CNC(=O)c1cccc2c(=O)c3ccccc3[nH]c12,GI50,786-0,> 100 µM (inactive)
same,GI50,A498,> 100 µM (inactive)
same,GI50,A549,> 100 µM (inactive)
same,GI50,ACHN,> 100 µM (inactive)
same,GI50,BT-549,91.8 µM (inactive)
same,GI50,CAKI-1,> 100 µM (inactive)
same,GI50,CCRF-CEM,97.3 µM (inactive)
same,GI50,COLO 205,> 100 µM (inactive)
same,GI50,DU-145,> 100 µM (inactive)
same,GI50,EKVX,> 100 µM (inactive)
same,GI50,HCC 2998,> 100 µM (inactive)
same,GI50,HCT-116,> 100 µM (inactive)
same,GI50,HCT-15,> 100 µM
same,GI50,HL-60,> 100 µM (inactive)
same,GI50,HOP-62,> 100 µM (inactive)
same,GI50,HOP-92,> 100 µM (inactive)
same,GI50,HT-29,> 100 µM (inactive)
same,GI50,Hs-578T,> 100 µM (inactive)
same,GI50,IGROV-1,26.9 µM (inactive)
same,GI50,K562,> 100 µM (inactive)
same,GI50,KM12,> 20.9 µM (inactive)
same,GI50,LOX IMVI,> 100 µM (inactive)
same,GI50,M14,> 100 µM (inactive)
same,GI50,MCF7,> 100 µM (inactive)
same,GI50,MDA-MB-231,> 100 µM (inactive)
same,GI50,MDA-MB-435,> 100 µM (inactive)
same,GI50,MDA-N,> 100 µM (inactive)
same,GI50,MOLT-4,> 100 µM (inactive)
same,GI50,Malme-3M,> 100 µM (inactive)
same,GI50,NCI-H226,> 100 µM (inactive)
same,GI50,NCI-H23,> 100 µM (inactive)
same,GI50,NCI-H460,> 100 µM (inactive)
same,GI50,NCI-H522,> 100 µM (inactive)
same,GI50,NCI/ADR-RES,> 100 µM (inactive)
same,GI50,OVCAR-3,> 100 µM (inactive)
same,GI50,OVCAR-4,> 100 µM (inactive)
same,GI50,OVCAR-5,> 100 µM (inactive)
same,GI50,OVCAR-8,> 100 µM (inactive)
same,GI50,PC-3,> 100 µM (inactive)
same,GI50,RPMI-8226,> 100 µM (inactive)
same,GI50,RXF 393,> 100 µM (inactive)
same,GI50,SF-268,> 100 µM (inactive)
same,GI50,SF-295,> 100 µM (inactive)
same,GI50,SF-539,> 100 µM (inactive)
same,GI50,SK-MEL-28,> 100 µM (inactive)
same,GI50,SK-MEL-2,> 100 µM (inactive)
same,GI50,SK-MEL-5,99.8 µM (inactive)
same,GI50,SK-OV-3,> 100 µM (inactive)
same,GI50,SN12C,> 100 µM (inactive)
same,GI50,SNB-19,> 100 µM (inactive)
same,GI50,SNB-75,84.7 µM (inactive)
same,GI50,SR,14.9 µM (inactive)
same,GI50,SW-620,> 100 µM (inactive)
same,GI50,T47D,> 100 µM (inactive)
same,GI50,TK-10,> 100 µM (inactive)
same,GI50,U-251,> 100 µM (inactive)
same,GI50,UACC-257,> 100 µM (inactive)
same,GI50,UACC-62,99.8 µM (inactive)
same,GI50,UO-31,70.1 µM (inactive)
